How the values were obtained:
[1] = target: 5-HT transporter (Rattus norvegicus, UniProt P31652); assay: ^3H-uptake rat, 5-HT transporter; type: biochemical
Excerpt: (§1) Compound (I) has been characterized as a monoamine reuptake inhibitor, based on the profile in a series of functional assays (Table 2).

[2] = target: NA transporter (Rattus norvegicus, UniProt Q63380); assay: ^3H-uptake rat, NA transporter; type: biochemical
Excerpt: as §1

[3] = target: 5-HT transporter (Homo sapiens, UniProt P31645); assay: ^3H-uptake human, 5-HT transporter; type: biochemical
Excerpt: as §1

[4] = target: NA transporter (Homo sapiens, UniProt P23975); assay: ^3H-uptake human, NA transporter; type: biochemical
Excerpt: as §1

[5] = target: DA transporter (Homo sapiens, UniProt Q01959); assay: ^3H-uptake human, DA transporter; type: biochemical
Excerpt: as §1

[6] = test system: NMRI mice; assay: Mouse forced swim test (mFST); type: in vivo
Method: Compound (I) was tested in two of the most widely used behavioural screens for predicting antidepressant effects in the clinic: the mouse forced swim test (mFST) and mouse tail suspension test (mTST).
In order to further characterize the role played by 5-HT and DA-ergic neurotransmission in the antidepressant-like effects of compound (I), the potential involvement of 5-HT1A and D1 receptors was investigated in the mFST.

[7] = test system: nialamide pre-treated mice; assay: Nialamide-induced 5-HT syndrome (m5-HT); type: in vivo, mouse
Method: 50 mg/kg nialamide s.c. t=120 min. Compound (I) p.o. t=0. n=4.
Compound (I) was tested in a classical test often used to measure the ability of a compound to block the reuptake of 5-HT in vivo: nialamide-induced 5-HT syndrome (m5-HT). In addition, compound (I) was tested in a locomotor activity paradigm (mLA) as a measure of its ability to block the reuptake of DA and therefore induce motility. It is generally accepted that >60% DA transporter blockade is needed to induce increased motility in this test.

[8] = Linearity after single p.o. dose in mouse; type: in vivo; conditions: for AUC(0-inf) / bioavailability / half-life: female, NMRI, mouse; for AUC(0-inf) / bioavailability / half-life / Cmax / Tmax: plasma, po; for bioavailability: compared to 10 mg/kg i.v.; for half-life: read-out: T½ (converted); for Cmax / Tmax: female NMRI mouse; for Tmax: 5% Tween 80
[9] = Metabolic stability in human hepatocytes; type: in vitro ADME; conditions: 120 minutes at 10 μM
Method: The stability of compound (I) was tested in human hepatocytes incubating for 120 minutes at 10 μM. The compound was stable in human hepatocytes.

[10] = 14-day repeat-dose study in NMRI mice; type: in vivo, mouse
Method: In a 14-day repeat-dose study 4 groups of 8 male and 8 female NMRI mice were treated daily with compound (I) at doses of 15, 30, and 60 mg/kg p.o. (Groups 2, 3 and 4), or vehicle, 5% glucose s.c. (Group 1). A satellite group 90 mg/kg p.o. (group 5) was conducted accordingly to increase the exposure and efficacy.

[11] = test system: Salmonella typhimurium strains TA 100 and TA 98; assay: Ames screening test; type: cell-based; conditions: 1.6 to 5000 μg/plate, presence or absence of S-9 mix
Method: Compound (I) was tested for genotoxicity in the Ames screening test using Salmonella typhimurium strains TA 100 and TA 98. Compound (I) was tested at dose levels of 1.6 to 5000 μg/plate in the presence or absence of S-9 mix.

[12] = test system: anesthetized rats; assay: Induction of erection in anesthetized rats (intracavernous pressure); type: in vivo, rat
Method: FIG. 25: Average spontaneous increases in (A) intracavernous pressure, (B) duration and (C) frequency of these events after infusion of the compound (I) (1 mg/kg) in young (6 week old male Wistar rats) and old (14-16 week old male rats) rats. Results are means±s.e. mean.
FIG. 26: Average rises in number of spontaneous erections measured as intracavernous pressure (ICP) after infusion of, respectively, 0.001 mg/kg, 0.01 mg/kg, 0.1 mg/kg, and 1 mg/kg compound (I) in anesthetized rats (n=4-6).
FIG. 27: Average effect of (A) vehicle (n=5), and compound (I) on mean arterial pressure (MAP) and erectile response measured as peak intracavernous pressure (PICP) over MAP (PICP/MAP) in anesthetized (B) 6 week old male Wistar rats (n=6), and (C) 14-16 week old male rats (n=6). Vehicle and compound (I) were administered after establishing the maximal (10 Hz, 1 ms, 6 V) and submaximal (submax) responses (10 Hz, 1 ms, 0.6-1.55 V) to cavernous nerve stimulation for 30 s. Submaximal stimulation was repeated 3, 13, 23, and 33 min after drug or vehicle administration. Upper traces show the mean arterial pressure (MAP), bars represent the erectile response ((PICP/MAP)·100), where PICP is the peak intracavernous pressure. […]
Compound (I) was administered intravenously to rats in dosages of 0.001, 0.01, 0.1, and 1.0 mg/kg, and the number of spontaneous erections was measured. […]

[13] = in vivo; conditions: male, Wistar, rat, plasma
[14] = 60 mg/kg p.o. 14 days (Group 4)
[15] = 90 mg/kg p.o. 14 days (Group 5)

Sequence of DA transporter (Q01959 whole entry): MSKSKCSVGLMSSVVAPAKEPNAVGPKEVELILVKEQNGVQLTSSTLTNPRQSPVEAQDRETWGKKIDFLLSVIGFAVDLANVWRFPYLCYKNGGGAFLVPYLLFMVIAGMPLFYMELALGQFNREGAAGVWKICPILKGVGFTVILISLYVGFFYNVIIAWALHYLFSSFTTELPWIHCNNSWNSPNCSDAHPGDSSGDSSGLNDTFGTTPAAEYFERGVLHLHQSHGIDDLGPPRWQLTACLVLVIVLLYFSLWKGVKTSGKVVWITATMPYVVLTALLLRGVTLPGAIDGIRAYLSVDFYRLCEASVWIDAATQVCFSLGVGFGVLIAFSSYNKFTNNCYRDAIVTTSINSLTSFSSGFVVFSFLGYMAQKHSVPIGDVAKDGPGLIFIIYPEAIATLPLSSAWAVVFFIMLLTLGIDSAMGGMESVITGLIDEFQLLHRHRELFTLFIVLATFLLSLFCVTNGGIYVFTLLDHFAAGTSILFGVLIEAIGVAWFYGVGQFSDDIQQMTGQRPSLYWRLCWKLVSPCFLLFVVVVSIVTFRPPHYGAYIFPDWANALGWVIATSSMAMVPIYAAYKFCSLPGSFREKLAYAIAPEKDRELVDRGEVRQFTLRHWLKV
Sequence of 5-HT transporter (Homo sapiens, UniProt P31645) (P31645 whole entry): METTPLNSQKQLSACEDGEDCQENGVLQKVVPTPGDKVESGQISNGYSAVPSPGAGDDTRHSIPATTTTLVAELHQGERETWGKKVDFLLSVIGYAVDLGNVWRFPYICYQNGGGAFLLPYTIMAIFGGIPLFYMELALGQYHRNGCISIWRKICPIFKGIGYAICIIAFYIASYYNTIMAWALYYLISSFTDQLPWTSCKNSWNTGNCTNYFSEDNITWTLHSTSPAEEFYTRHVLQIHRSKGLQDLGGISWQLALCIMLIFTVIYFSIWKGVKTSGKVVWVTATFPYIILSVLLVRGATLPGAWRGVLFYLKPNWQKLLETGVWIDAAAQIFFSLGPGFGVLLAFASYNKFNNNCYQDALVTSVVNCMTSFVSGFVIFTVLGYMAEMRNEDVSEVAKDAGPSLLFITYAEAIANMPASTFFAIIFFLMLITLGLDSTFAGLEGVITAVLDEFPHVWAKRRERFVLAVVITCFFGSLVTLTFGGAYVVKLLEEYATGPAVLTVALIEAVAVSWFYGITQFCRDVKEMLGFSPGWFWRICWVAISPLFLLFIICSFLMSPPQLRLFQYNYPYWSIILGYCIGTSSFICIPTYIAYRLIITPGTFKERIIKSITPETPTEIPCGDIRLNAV
Sequence of NA transporter (Homo sapiens, UniProt P23975) (P23975 whole entry): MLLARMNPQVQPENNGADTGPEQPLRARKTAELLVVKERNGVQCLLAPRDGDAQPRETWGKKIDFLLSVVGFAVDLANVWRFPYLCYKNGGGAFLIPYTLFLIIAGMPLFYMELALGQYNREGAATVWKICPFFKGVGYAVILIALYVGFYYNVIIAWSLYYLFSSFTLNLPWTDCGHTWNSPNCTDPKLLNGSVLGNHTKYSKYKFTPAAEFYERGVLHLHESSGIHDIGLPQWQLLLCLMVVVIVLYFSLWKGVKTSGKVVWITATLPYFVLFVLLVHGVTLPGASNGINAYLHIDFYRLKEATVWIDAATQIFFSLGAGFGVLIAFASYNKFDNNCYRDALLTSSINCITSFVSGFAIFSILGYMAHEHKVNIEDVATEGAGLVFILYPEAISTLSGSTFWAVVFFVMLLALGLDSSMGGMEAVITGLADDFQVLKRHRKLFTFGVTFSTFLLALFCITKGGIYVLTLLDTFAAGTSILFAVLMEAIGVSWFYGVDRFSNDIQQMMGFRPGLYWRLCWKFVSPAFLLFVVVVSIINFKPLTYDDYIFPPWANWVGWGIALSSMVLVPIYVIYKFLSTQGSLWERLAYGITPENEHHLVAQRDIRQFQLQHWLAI
Sequence of 5-HT transporter (Rattus norvegicus, UniProt P31652) (P31652 whole entry): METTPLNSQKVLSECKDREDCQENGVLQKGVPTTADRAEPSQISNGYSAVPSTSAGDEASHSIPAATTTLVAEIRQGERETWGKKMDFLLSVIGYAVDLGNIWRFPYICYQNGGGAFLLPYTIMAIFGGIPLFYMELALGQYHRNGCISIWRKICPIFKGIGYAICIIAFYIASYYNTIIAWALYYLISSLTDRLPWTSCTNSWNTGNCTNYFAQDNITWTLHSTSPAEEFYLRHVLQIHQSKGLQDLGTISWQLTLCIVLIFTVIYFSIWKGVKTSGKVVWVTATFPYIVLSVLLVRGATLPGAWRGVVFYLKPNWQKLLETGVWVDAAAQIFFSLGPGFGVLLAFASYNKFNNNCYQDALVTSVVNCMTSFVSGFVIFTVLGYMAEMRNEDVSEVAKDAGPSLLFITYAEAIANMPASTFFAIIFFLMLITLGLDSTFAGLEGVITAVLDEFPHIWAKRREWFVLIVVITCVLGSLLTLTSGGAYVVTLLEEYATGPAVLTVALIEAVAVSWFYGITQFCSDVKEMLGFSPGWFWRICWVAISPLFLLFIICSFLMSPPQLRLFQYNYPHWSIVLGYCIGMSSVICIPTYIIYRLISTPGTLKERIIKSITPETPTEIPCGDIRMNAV
Sequence of NA transporter (Rattus norvegicus, UniProt Q63380) (Q63380 1-617): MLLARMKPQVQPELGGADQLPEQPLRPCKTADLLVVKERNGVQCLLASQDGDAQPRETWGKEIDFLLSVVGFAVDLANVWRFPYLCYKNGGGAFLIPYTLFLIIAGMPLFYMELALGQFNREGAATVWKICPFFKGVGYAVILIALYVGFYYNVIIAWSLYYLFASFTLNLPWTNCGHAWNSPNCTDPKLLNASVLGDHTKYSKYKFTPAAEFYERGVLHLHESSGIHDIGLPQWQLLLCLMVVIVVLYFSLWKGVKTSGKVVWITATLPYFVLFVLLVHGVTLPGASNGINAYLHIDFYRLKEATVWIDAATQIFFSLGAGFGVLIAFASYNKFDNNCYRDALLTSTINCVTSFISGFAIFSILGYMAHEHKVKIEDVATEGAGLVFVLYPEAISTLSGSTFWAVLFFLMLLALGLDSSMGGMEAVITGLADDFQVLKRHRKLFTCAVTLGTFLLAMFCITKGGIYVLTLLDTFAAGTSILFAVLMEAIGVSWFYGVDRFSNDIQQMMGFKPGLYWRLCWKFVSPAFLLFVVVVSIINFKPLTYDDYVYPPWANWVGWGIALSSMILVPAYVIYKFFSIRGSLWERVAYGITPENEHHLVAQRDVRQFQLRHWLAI

`O=c1ccc2ccc(O[C@@H]3C[C@H]4CC[C@@H](C3)N4)cc2o1` [Compound (I), exo-7-(8-aza-bicyclo[3.2.1]oct-3-yloxy)-chromen-2-one] gave an IC50 [1] of 0.45 nM, an IC50 [2] of 85 nM and an IC50 [3] of 1.8 nM. The Ki [3] was 2 nM, the Human transporter ratio ([3]; 5-HT (reference = 1)) was 1 and the IC50 [4] was 46 nM. The Ki [4] was 50.1 nM, the Human transporter ratio ([4]; NA versus 5-HT) was 26 and the IC50 [5] was 100 nM. For the same molecule, the Ki [5] was 100 nM, the Human transporter ratio ([5]; DA versus 5-HT) was 56 and the MED ([6]; mFST (NMRI), p.o. 60 min) was 1 mg/kg. It also gave an MED ([6]; mFST, 0.03, 0.1, 0.3 mg/kg p.o. −60 min + WAY100635 0.1 mg/kg s.c. −60 min) of 0.1 mg/kg, an MED ([6]; mFST, 1, 3, 10 mg/kg p.o. −60 min + SCH23390 0.00375 mg/kg s.c. −60 min) of 10 mg/kg and an MED ([6]; mFST, 1, 3, 10 mg/kg p.o. −60 min + WAY100635 1 mg/kg s.c. −60 min) of 1 mg/kg. The “Leftward shift in dose-response” value ([6]; mFST, with low dose of WAY100635) was 10 fold, the “Rightward shift in dose-response” value ([6]; mFST, with non-sedative dose of SCH23390) was 10 fold and the MED ([7]; m5-HT, p.o. 0 min) was 0.1 mg/kg. The “Potency in 5-HT syndrome relative to the reference compounds tested” value ([7]; nialamide pre-treated mice) was 100 times, the AUC(0-inf) ([8]; 30 mg/kg p.o.) was 14300 ng·h/mL and the bioavailability ([8]; 30 mg/kg p.o.) was 206%. The half-life ([8]; 30 mg/kg p.o.) was 306 min, the AUC(0-inf) ([8]; 60 mg/kg p.o.) was 34700 ng·h/mL and the bioavailability ([8]; 60 mg/kg p.o.) was 250%. The half-life ([8]; 60 mg/kg p.o.) was 366 min, the “Linearity of kinetics (AUC versus dose)” value ([8]; mice, relatively high doses p.o., single dose) was “tendency to sub-linear kinetics” and the Cmax ([8]; 30 mg/kg p.o.) was 3080 ng/mL. The Tmax ([8]; 30 mg/kg p.o.) was 30 min, the Cmax ([8]; 60 mg/kg p.o.) was 4150 ng/mL and the Tmax ([8]; 60 mg/kg p.o.) was 30 min. The “Stability in human hepatocytes” value [9] was “stable”, the Activity [10, 14] was “increase in activity in both male and female” and the Body weight [10, 14] was “significant decrease in body weight in the female group”. The Relative liver weight [10, 14] was “significant decrease in relative liver weight in both sexes”, the Activity [10, 15] was “increase in activity in both male and female” and the “Body weight and relative liver weight” value [10, 15] was “significant decrease in body weight and in relative liver weight in both sexes”. The “Macroscopic findings at termination” value ([10]; 15 up to 90 mg/kg/day p.o. 14 days) was “no treatment-related macroscopic findings”, the “Mutagenic activity (genotoxicity)” value [11] was “did not show any evidence of mutagenic activity” and the Induction of erection ([12]; 1 mg/kg) was “induce erection in both young and adult rats”. The “Number of spontaneous erections versus dose” value ([12]; intravenously 0.001, 0.01, 0.1 and 1.0 mg/kg) was “increased with increasing dosage from 0.001 to 0.1 mg/kg, but decreased abruptly at a dose of 1.0 mg/kg”, the Vd ([13]; intravenous, 2.5 mg/kg) was 5.6 L/kg and the clearance ([13]; intravenous, 2.5 mg/kg) was 137 mL/min/kg. For the same molecule, the AUC(0-inf) ([13]; iv, 2.5 mg/kg) was 306 ng·h/mL, the half-life ([13]; iv, 2.5 mg/kg) was 48 min and the bioavailability ([13]; oral, 5 mg/kg) was 3%. It also gave an AUC(0-inf) ([13]; po, 5 mg/kg) of 17 ng·h/mL, a Cmax ([13]; po, 5 mg/kg) of 8 ng/mL and a Tmax ([13]; po, 5 mg/kg) of 30 min.
